From patent publication US20230416329A1, “A PEPTIDE WITH DISULFIDE BONDS AND INHIBITORY ACTIVITY AGAINST SERINE PROTEASES, DERIVED HYBRID PEPTIDES THEREOF, AND USES THEREOF” (INSTITUTE OF MATERIA MEDICA , CHINESE ACADEMY OF MEDICAL …, priority 2020, published 2023)
Bridge positions count the residues as written; N and C are the ends. Square brackets hold non-standard residues; d marks the D form. Peptide text beside a SMILES is read from it. Hyp = O=C(O)[C@@H]1C[C@@H](O)CN1; Abu = CC[C@H](N)C(=O)O

Target: porcine pancreatic elastase (Sus scrofa, UniProt P00772)
Assay: Elastase inhibitory activity of peptides (AAApNA hydrolysis; IC50, Ki, residual activity)
Format: biochemical
Details: for IC50: elastase 0.5 μM, AAApNA 1 mM; for Ki: read-out: Ki
Experimental: The inhibition constants of various synthetic active peptide inhibitors (molecular scaffolds) against seine proteases were measured. The substrates N-succinyl-Ala-Ala-Pro-Phe-p-nitroaniline (AAPFpNA), Nα—Benzoyl-L-arginine-4-nitroaniline hydrochloride (BApNA) and N-succinyl-[…] (AAApNA) are used in competitive binding reaction to determine the inhibitory activities against α-chymotrypsin, bovine trypsin, and porcine pancreatic elastase, respectively. Experiments for α-chymotrypsin and bovine trypsin inhibition were measured in 20 mM CaCl2, 50 mM Tris-HCl buffer (pH 7.8), and that for porcine elastase inhibition was measured in 50 mM Tris-HCl buffer (pH 8.0). The concentration of the peptide was measured using optical density (OD) at 280 nm. The Michaelis constant (Km) of the enzyme hydrolysis substrate is calculated from the initial rate of substrate hydrolysis at 405 nm. The absorbance value of the substrate was measured at 405 nm after complete hydrolysis. All data were processed using nonlinear regression.
• (1) Added a total 198 μL of reaction buffer (20 mM CaCl2, 50 mM Tris-HCl (pH 8.0)) into the 96 well plate, followed by preheating at 37° C. for 15 min. Then added 2 μL of different concentrations of substrates (pNA, dissolved in DMSO), and mixed by centrifugation at 500 rpm for 1 min. Finally, the plate was incubated at 37° C. for 30 min, and the absorbance value at 405 nm was measured. In the 200 μL of reaction system, the final concentrations of pNA were 0, 0.025, 0.05, 0.075, 0.1, 0.125, 0.15, 0.175, and 0.2 mM, respectively. Make three repetitions for each concentration and plot the OD405 m value with pNA concentration to obtain the standard curve. • (2) Added a total 190 μL of reaction buffer (20 mM CaCl2, 50 mM Tris-HCl (pH 8.0)) and 8 μL of 4.375 μM elastase into the 96 well plate, followed by preheating at 37° C. for 5 min. Then added 2 μL of different concentrations of substrates (AAApNA, dissolved in DMSO), and mixed by centrifugation at 500 rpm for 1 min. Finally, the plate was incubated at 37° C. for 30 min, and the absorbance value at 405 nm was measured. In the 200 μL of reaction system, the final concentrations of AAApNA were 0, 0.125, 0.166, 0.2, 0.25, 0.33, 0.6, 0.75, and 1.25 mM, respectively. Make three repetitions for each concentration and plot the OD405 nm value with time to obtain the corresponding curve. Divide the slope of the curve by the slope of the standard curve and the enzyme concentration to obtain the initial velocity V0 (mM/(min*mM protein). Plot the initial velocity V0 with the concentration of substrate AAApNA using Prism software, and the Michaelis constant Km value of elastase hydrolyzing AAApNA was obtained.
• (1) Added a total 190 μL of different concentrations of peptides (ECs) against elastase and reaction buffer (20 mM CaCl2, 50 mM Tris-HCl buffer (pH 8.0)) into the pre-cold 96 well plate, followed by preheating at 37° C. for 5 min and centrifugated at 500 rpm for 1 min and allowed to stand for 4 minutes. Then added 8 μL of 12.5 μM elastase and incubated at 37° C. for 10 min and centrifugated at 500 rpm for 1 min and allowed to stand for 9 minutes. Finally, added 2 μL of 100 mM AAApNA, and mixed by centrifugation at 500 rpm for 1 min. The plate was incubated at 37° C. for 60 min, and the absorbance value at 405 nm was measured. Three repetitions were made, and only reaction buffer and substrate were added in the blank control as the minimum absorption value (Min OD405 nm); Only reaction buffer, enzyme and substrate were added in the negative control as the maximum absorption value (Max OD405 nm). • (2) In the 200 μL of reaction system, the final concentrations of elastase and AAApNA were 0.5 μM and 1 mM, respectively. • (3) Data statistics
Residual activity of enzyme (%)=(1−(Max OD405 nm−Sample OD405 nm)/(Max OD405 nm−Min OD405 nm))*100 […]

porcine pancreatic elastase, sequence (P00772 27-266): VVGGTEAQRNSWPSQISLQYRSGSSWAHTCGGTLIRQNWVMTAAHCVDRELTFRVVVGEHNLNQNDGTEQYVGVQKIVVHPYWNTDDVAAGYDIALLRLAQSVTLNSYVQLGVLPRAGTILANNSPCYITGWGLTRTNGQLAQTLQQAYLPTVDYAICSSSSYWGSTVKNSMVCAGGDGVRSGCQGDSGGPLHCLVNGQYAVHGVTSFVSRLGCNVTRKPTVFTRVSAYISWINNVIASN

| Structure (SMILES) | IC50 [µM] | inhibitory activity against elastase (in words) | Ki [µM] |
| --- | --- | --- | --- |
| CC[C@H](C)[C@@H]1NC(=O)[C@H](CO)NC(=O)[C@H](C)NC(=O)[C@H]([C@@H](C)O)NC(=O)CNC(=O)[C@H](CC(C)C)NC(=O)CNC(=O)[C@@H](N)CSSC[C@@H](C(=O)N[C@@H](Cc2ccc(O)cc2)C(=O)O)NC(=O)[C@H](CCC(N)=O)NC(=O)[C@@H]2CCCN2C(=O)[C@@H]2CCCN2C1=O [EC4] (H-CGLGTASIPPQCY-OH; disulfide 1-12) | > 50 | – | – |
| CC[C@H](C)[C@@H]1NC(=O)CNC(=O)[C@@H](N)CSSC[C@@H](C(=O)N[C@@H](CCC(N)=O)C(=O)O)NC(=O)[C@H]([C@@H](C)CC)NC(=O)[C@@H]2CCCN2C(=O)[C@@H]2CCCN2C(=O)[C@H]([C@@H](C)CC)NC(=O)[C@H](CO)NC(=O)[C@H](C)NC(=O)[C@H]([C@@H](C)O)NC(=O)[C@H](C)NC1=O [EC30] (H-CGIATASIPPICQ-OH; disulfide 1-12) | > 50 | – | – |
| CC[C@H](C)[C@@H]1NC(=O)[C@H](CO)NC(=O)[C@H](C)NC(=O)[C@H]([C@@H](C)O)NC(=O)[C@H](C)NC(=O)[C@H](CC(C)C)NC(=O)[C@@H](N)CSSC[C@@H](C(=O)N[C@@H](Cc2ccc(O)cc2)C(=O)O)NC(=O)[C@H](CCC(N)=O)NC(=O)[C@@H]2CCCN2C(=O)[C@@H]2CCCN2C1=O [EC5] (H-CLATASIPPQCY-OH; disulfide 1-11; N-terminus and C-terminus assumed) | > 50 | – | – |
| CC[C@H](C)[C@@H]1NC(=O)CNC(=O)[C@@H](N)CSSC[C@@H](C(=O)N[C@@H](CCC(N)=O)C(=O)O)NC(=O)[C@H]([C@@H](C)CC)NC(=O)[C@@H]2CCCN2C(=O)[C@@H]2CCCN2C(=O)[C@H]([C@@H](C)CC)NC(=O)[C@H](CO)NC(=O)[C@H](C)NC(=O)[C@H]([C@@H](C)O)NC(=O)[C@H](CCCCN)NC1=O [EC42] (H-CGIKTASIPPICQ-OH; disulfide 1-12) | > 50 | – | – |
| CC[C@H](C)[C@@H]1NC(=O)[C@H](CO)NC(=O)[C@H](C)NC(=O)[C@H]([C@@H](C)O)NC(=O)[C@@H](NC(=O)[C@@H](N)CC(C)C)CSSC[C@@H](C(=O)N[C@@H](Cc2ccc(O)cc2)C(=O)O)NC(=O)[C@H](CCC(N)=O)NC(=O)[C@@H]2CCCN2C(=O)[C@@H]2CCCN2C1=O [EC1] (H-LCTASIPPQCY-OH; disulfide 2-10; C-terminus assumed) | – | better inhibitory activity against Elastase | 0.33 |
| CC[C@H](C)[C@@H]1NC(=O)[C@@H]2CCCN2C(=O)[C@@H]2CCCN2C(=O)[C@H]([C@@H](C)CC)NC(=O)[C@H](CO)NC(=O)[C@H](C)NC(=O)[C@H]([C@@H](C)O)NC(=O)[C@H](CCC(=O)O)NC(=O)[C@H](CCCNC(=N)N)NC(=O)CNC(=O)[C@@H](N)CSSC[C@@H](C(=O)N[C@@H](CCC(N)=O)C(=O)O)NC1=O [EC8] (H-CGRETASIPPICQ-OH; disulfide 1-12; N-terminus and C-terminus assumed) | > 50 | – | – |
| CC[C@H](C)[C@H](N)C(=O)N[C@H]1CSSC[C@@H](C(=O)N[C@@H](CCC(N)=O)C(=O)O)NC(=O)[C@H]([C@@H](C)CC)NC(=O)[C@@H]2CCCN2C(=O)[C@@H]2C[C@@H](O)CN2C(=O)[C@H]([C@@H](C)CC)NC(=O)[C@H](CO)NC(=O)[C@H](C)NC(=O)[C@H]([C@@H](C)O)NC1=O [EC47, Ile-Cys-Thr-Ala-Ser-Ile-Hyp-Pro-Ile-Cys-Gln] (H-ICTASI[Hyp]PICQ-OH; disulfide 2-10; C-terminus assumed) | 0.4 | – | 0.11 |
| CC(C)C[C@H](N)C(=O)N[C@H]1CSSC[C@@H](C(=O)N[C@@H](CCCNC(=N)N)C(=O)O)NC(=O)[C@H]([C@@H](C)O)NC(=O)[C@@H]2CCCN2C(=O)[C@@H]2CCCN2C(=O)[C@H](CC(N)=O)NC(=O)[C@H](CO)NC(=O)[C@H](C)NC(=O)[C@H]([C@@H](C)O)NC1=O [EC28] (H-LCTASNPPTCR-OH; disulfide 2-10) | > 50 | – | – |
| CC[C@H](C)[C@@H]1NC(=O)[C@@H]2CCCN2C(=O)[C@@H]2CCCN2C(=O)[C@H]([C@@H](C)CC)NC(=O)[C@H](CO)NC(=O)[C@H](CC(C)C)NC(=O)[C@H]([C@@H](C)O)NC(=O)[C@H](C)NC(=O)[C@H](CC(C)C)NC(=O)CNC(=O)[C@@H](N)CSSC[C@@H](C(=O)N[C@@H](CCC(N)=O)C(=O)O)NC1=O [EC7] (H-CGLATLSIPPICQ-OH; disulfide 1-12; N-terminus and C-terminus assumed) | – | weaker inhibitory activity | – |
| CC[C@H](C)[C@@H]1NC(=O)[C@@H]2CCCN2C(=O)[C@@H]2CCCN2C(=O)[C@H]([C@@H](C)CC)NC(=O)[C@H](CO)NC(=O)[C@H](CC(C)C)NC(=O)[C@H]([C@@H](C)O)NC(=O)[C@H](C)NC(=O)[C@H](CC(C)C)NC(=O)CNC(=O)CNC(=O)[C@@H](N)CSSC[C@@H](C(=O)N[C@@H](CCC(N)=O)C(=O)O)NC1=O [EC17] (H-CGGLATLSIPPICQ-OH; disulfide 1-13) | > 50 | – | – |
| CC[C@H](C)[C@@H]1NC(=O)[C@H](CO)NC(=O)[C@H](C)NC(=O)[C@H]([C@@H](C)O)NC(=O)[C@H](C)NC(=O)[C@H](Cc2ccc(O)cc2)NC(=O)CNC(=O)[C@@H](N)CSSC[C@@H](C(=O)N[C@@H](Cc2ccc(O)cc2)C(=O)O)NC(=O)[C@H](CCC(N)=O)NC(=O)[C@@H]2CCCN2C(=O)[C@@H]2CCCN2C1=O [EC15] (H-CGYATASIPPQCY-OH; disulfide 1-12; N-terminus and C-terminus assumed) | > 50 | – | – |
| CC[C@@H]1NC(=O)[C@H]([C@@H](C)CC)NC(=O)CNC(=O)[C@@H](N)CSSC[C@@H](C(=O)N[C@@H](CCC(N)=O)C(=O)O)NC(=O)[C@H]([C@@H](C)CC)NC(=O)[C@@H]2CCCN2C(=O)[C@@H]2CCCN2C(=O)[C@H]([C@@H](C)CC)NC(=O)[C@H](CO)NC(=O)[C@H](C)NC(=O)[C@H]([C@@H](C)O)NC1=O [EC31] (H-CGI[Abu]TASIPPICQ-OH; disulfide 1-12) | > 50 | – | – |
| CC[C@H](C)[C@@H]1NC(=O)[C@@H]2CCCN2C(=O)[C@@H]2CCCN2C(=O)[C@H]([C@@H](C)CC)NC(=O)[C@H](CO)NC(=O)[C@H](C)NC(=O)[C@H]([C@@H](C)O)NC(=O)[C@H](C)NC(=O)[C@H](CC(C)C)NC(=O)CNC(=O)CNC(=O)[C@@H](N)CSSC[C@@H](C(=O)N[C@@H](CCC(N)=O)C(=O)O)NC1=O [EC16] (H-CGGLATASIPPICQ-OH; disulfide 1-13; N-terminus and C-terminus assumed) | > 50 | – | – |
| CC[C@H](C)[C@@H]1NC(=O)[C@H](CO)NC(=O)[C@H](C)NC(=O)[C@H]([C@@H](C)O)NC(=O)[C@@H](NC(=O)[C@@H](N)CC(C)C)CSSC[C@@H](C(=O)N[C@@H](CCCNC(=N)N)C(=O)O)NC(=O)[C@H](CCC(N)=O)NC(=O)[C@@H]2CCCN2C(=O)[C@@H]2CCCN2C1=O [EC20] (H-LCTASIPPQCR-OH; disulfide 2-10; N-terminus and C-terminus assumed) | > 50 | – | – |
